Among the data in patent US9695180B2 (Incyte Corporation, priority 2014, dated 2017) are IC50 values, retold here.

For the assay, the target named is LSD-1 enzyme (Homo sapiens (Human), UniProt O60341). As to the kind of experiment: LANCE LSD1/KDM1A demethylase assay (LSD1 histone demethylase biochemical assay). On the procedure: Example A: LSD1 Histone Demethylase Biochemical Assay
LANCE LSD1/KDM1A demethylase assay—10 μL of 1 nM LSD-1 enzyme (ENZO BML-SE544-0050) in the assay buffer (50 mM Tris, pH 7.5, 0.01% Tween-20, 25 mM NaCl, 5 mM DTT) were preincubated for 1 hour at 25° C. with 0.8 μL compound/DMSO dotted in black 384 well polystyrene plates. […] Reactions were stopped by addition of 10 μL 1× LANCE Detection Buffer (PerkinElmer CR97-100) supplemented with 1.5 nM Eu-anti-unmodified H3K4 Antibody (PerkinElmer TRF0404), and 225 nM LANCE Ultra Streptavidin (PerkinElmer TRF102) along with 0.9 mM Tranylcypromine-HCl (Millipore 616431). After stopping the reactions plates were incubated for 30 minutes and read on a PHERAstar FS plate reader (BMG Labtech).

In the case of `CN1CCC[C@@H](COc2nc(-c3ccc(C#N)cc3)c(-c3cnc4c(cnn4C)c3)n3ccnc23)C1` [Example 54, 4-[8-{[(3R)-1-methylpiperidin-3-yl]methoxy}-5-(1-methyl-1H-pyrazolo[3,4-b]pyridin-5-yl)imidazo[1,2-a]pyrazin-6-yl]benzonitrile], the IC50 lay in the range of 0.05 to 0.5 µM. To `CN1CCC[C@@H](COc2nc(-c3ccc(C#N)cc3)c(-c3ccc4scnc4c3)n3ccnc23)C1` [Example 55, 4-(5-(1,3-benzothiazol-5-yl)-8-{[(3R)-1-methylpiperidin-3-yl]methoxy}imidazo[1,2-a]pyrazin-6-yl)benzonitrile] belongs 0.05 to 0.5 µM; to `CN(C)[C@H]1CCN(Cc2nc(-c3ccc(C#N)cc3)c(-c3ccc(N4CCCC4=O)nc3)n3ccnc23)C1` [Example 56, 4-{8-{[(3S)-3-(dimethylamino)pyrrolidin-1-yl]methyl}-5-[6-(2-oxopyrrolidin-1-yl)pyridin-3-yl]imidazo[1,2-a]pyrazin-6-yl}benzonitrile], 0.05 to 0.5 µM. To `CCN1CCC[C@@H](COc2nc(-c3ccc(C#N)cc3)c(-c3cnc4c(ccn4C)c3)n3ccnc23)C1` [Example 61, 4-[8-{[(3R)-1-ethylpiperidin-3-yl]methoxy}-5-(1-methyl-1H-pyrrolo[2,3-b]pyridin-5-yl)imidazo[1,2-a]pyrazin-6-yl]benzonitrile] belongs 0.05 to 0.5 µM; to `CCN1CCC[C@@H](COc2nc(-c3ccc(C#N)cc3)c(-c3ccc4c(c3)oc(=O)n4C)n3ccnc23)C1` [Example 63, 4-[8-{[(3R)-1-ethylpiperidin-3-yl]methoxy}-5-(3-methyl-2-oxo-2,3-dihydro-1,3-benzoxazol-6-yl)imidazo[1,2-a]pyrazin-6-yl]benzonitrile], 0.05 to 0.5 µM; to `Cn1c(=O)oc2cc(-c3c(-c4ccc(C#N)cc4)nc(OC[C@@H]4CCCN(CCC#N)C4)c4nccn34)ccc21` [Example 64, 4-[8-{[(3R)-1-(2-cyanoethyl)piperidin-3-yl]methoxy}-5-(3-methyl-2-oxo-2,3-dihydro-1,3-benzoxazol-6-yl)imidazo[1,2-a]pyrazin-6-yl]benzonitrile], 0.05 to 0.5 µM.

Consider `Cc1ccc(-c2c(-c3ccc(C#N)cc3)nc(OC[C@@H]3CCCN(C)C3)c3nccn23)cc1CN1CCN(S(C)(=O)=O)CC1` [Example 71, 4-(5-(4-methyl-3-{[4-(methylsulfonyl)piperazin-1-yl]methyl}phenyl)-8-{[(3R)-1-methylpiperidin-3-yl]methoxy}imidazo[1,2-a]pyrazin-6-yl)benzonitrile], for which the IC50 was in the range of 0.05 to 0.5 µM. Consider `CN1CCC[C@@H](COc2nc(-c3ccc(C#N)cc3)c(-c3ccc(CO)cc3)n3ccnc23)C1` [Example 74, 4-(5-[4-(hydroxymethyl)phenyl]-8-{[(3R)-1-methylpiperidin-3-yl]methoxy}imidazo[1,2-a]pyrazin-6-yl)benzonitrile], for which the IC50 is 0.05 to 0.5 µM. As for `CN1CCC[C@@H](COc2nc(-c3ccc(C#N)cc3)c(-c3ccc(CN4CCOCC4)cc3)n3ccnc23)C1` [Example 75, 4-{8-{[(3R)-1-methylpiperidin-3-yl]methoxy}-5-[4-(morpholin-4-ylmethyl)phenyl]imidazo[1,2-a]pyrazin-6-yl}benzonitrile], the figure is 0.05 to 0.5 µM; as for `COC(=O)N(C)c1ccc(-c2c(-c3ccc(C#N)cc3)nc(OC[C@@H]3CCCN(C)C3)c3nccn23)cc1` [Example 77], 0.05 to 0.5 µM; as for `CN1CCC[C@@H](COc2nc(-c3ccc(C#N)cc3)c(-c3ccc(CN4CCOCC4)c(F)c3)n3ccnc23)C1` [Example 82, 4-(5-[3-fluoro-4-(morpholin-4-ylmethyl)phenyl]-8-{[(3R)-1-methylpiperidin-3-yl]methoxy}imidazo[1,2-a]pyrazin-6-yl)benzonitrile], 0.05 to 0.5 µM.

As to `CN1CCC[C@@H](COc2nc(-c3ccc(C#N)cc3)c(-c3cc(F)c(CO)c(F)c3)n3ccnc23)C1` [Example 83, 4-(5-[3,5-difluoro-4-(hydroxymethyl)phenyl]-8-{[(3R)-1-methylpiperidin-3-yl]methoxy}imidazo[1,2-a]pyrazin-6-yl)benzonitrile], the IC50 lay in the range of 0.05 to 0.5 µM. `COc1ncc(-c2c(-c3ccc(C#N)cc3)nc(OC[C@@H]3CCCN(C)C3)c3nccn23)cc1F` [Example 84, 4-(5-(5-fluoro-6-methoxypyridin-3-yl)-8-{[(3R)-1-methylpiperidin-3-yl]methoxy}imidazo[1,2-a]pyrazin-6-yl)benzonitrile] yielded an IC50 of 0.05 to 0.5 µM. Regarding `Cc1cc(-c2c(-c3ccc(C#N)cc3)nc(OC[C@@H]3CCCN(C)C3)c3nccn23)ccc1C(C)O` (stereo partly drawn) [Example 86, 4-(5-[4-(1-hydroxyethyl)-3-methylphenyl]-8-{[(3R)-1-methylpiperidin-3-yl]methoxy}imidazo[1,2-a]pyrazin-6-yl)benzonitrile], the IC50 lay in the range of 0.05 to 0.5 µM. As for `CN1CCC[C@@H](COc2nc(-c3ccc(C#N)cc3)c(-c3ccc(CN4CCOCC4)cc3F)n3ccnc23)C1` [Example 89, 4-(5-[2-fluoro-4-(morpholin-4-ylmethyl)phenyl]-8-{[(3R)-1-methylpiperidin-3-yl]methoxy}imidazo[1,2-a]pyrazin-6-yl)benzonitrile], the figure is 0.05 to 0.5 µM. As for `CN(C)[C@H]1CCN(c2nc(-c3ccc(C#N)cc3)c(-c3ccc(N4CCCC4=O)nc3)n3ccnc23)C1` [Example 104, 4-{8-[(3S)-3-(dimethylamino)pyrrolidin-1-yl]-5-[6-(2-oxopyrrolidin-1-yl)pyridin-3-yl]imidazo[1,2-a]pyrazin-6-yl}benzonitrile], the figure is 0.05 to 0.5 µM. As for `CN1C(=O)CCc2ccc(-c3c(-c4ccc(C#N)cc4)nc(N4CCC(N(C)C)CC4)c4nccn34)cc21` [Example 108, 4-[8-[4-(dimethylamino)piperidin-1-yl]-5-(1-methyl-2-oxo-1,2,3,4-tetrahydroquinolin-7-yl)imidazo[1,2-a]pyrazin-6-yl]benzonitrile], the figure is 0.05 to 0.5 µM; as for `C[C@H](O)c1nc2cc(-c3c(-c4ccc(C#N)cc4)nc(N4CCC(N(C)C)CC4)c4nccn34)ccc2n1C` [Example 114, 4-(8-[4-(dimethylamino)piperidin-1-yl]-5-{2-[(1S)-1-hydroxyethyl]-1-methyl-1H-benzimidazol-5-yl}imidazo[1,2-a]pyrazin-6-yl)benzonitrile], 0.05 to 0.5 µM; as for `COc1cc(-c2c(-c3ccc(C#N)cc3)nc(N3CCC(N(C)C)CC3)c3nccn23)cnc1C` [Example 116, 4-[8-[4-(dimethylamino)piperidin-1-yl]-5-(5-methoxy-6-methylpyridin-3-yl)imidazo[1,2-a]pyrazin-6-yl]benzonitrile], 0.05 to 0.5 µM. `Cc1ncc(-c2c(-c3ccc(C#N)cc3)nc(OC[C@@H]3CCCN(C)C3)c3nccn23)cc1C#N` [Example 117, 5-(6-(4-cyanophenyl)-8-{[(3R)-1-methylpiperidin-3-yl]methoxy}imidazo[1,2-a]pyrazin-5-yl)-2-methylnicotinonitrile]: the IC50 fell in the range of 0.05 to 0.5 µM.
